Here are results for four compounds from ChEMBL document CHEMBL3085700 (J Med Chem, 2013).

The target of assay [1] is T1, Fatty-acid amide hydrolase 1 (Homo sapiens, UniProt O00519).
T1 sequence (O00519 whole entry): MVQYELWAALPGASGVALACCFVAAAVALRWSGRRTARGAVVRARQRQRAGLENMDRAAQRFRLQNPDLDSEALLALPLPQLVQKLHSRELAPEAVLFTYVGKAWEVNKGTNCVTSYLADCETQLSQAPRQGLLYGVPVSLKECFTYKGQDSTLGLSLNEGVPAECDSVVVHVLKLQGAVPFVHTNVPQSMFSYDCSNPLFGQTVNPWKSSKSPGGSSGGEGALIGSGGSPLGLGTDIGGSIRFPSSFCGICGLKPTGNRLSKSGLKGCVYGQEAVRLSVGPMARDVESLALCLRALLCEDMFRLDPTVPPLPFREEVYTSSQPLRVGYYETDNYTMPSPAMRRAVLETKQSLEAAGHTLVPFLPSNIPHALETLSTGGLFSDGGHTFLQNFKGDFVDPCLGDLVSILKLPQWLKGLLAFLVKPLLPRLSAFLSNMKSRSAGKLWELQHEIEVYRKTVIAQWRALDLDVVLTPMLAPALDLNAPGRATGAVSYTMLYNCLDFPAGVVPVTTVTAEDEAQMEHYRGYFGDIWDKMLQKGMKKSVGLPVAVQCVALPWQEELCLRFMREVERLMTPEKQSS
Description: Inhibition of human recombinant FAAH overexpressed in African green monkey COS7 cells using [3H]-anandamide as substrate preincubated for 10 mins before substrate addition measured after 10 mins by liquid scintillation counting analysis. The assay is classed as cell-based, COS-7. The conditions noted are these: for pIC50: read-out: IC50; for IC50: read-out: pIC50 (converted).

For assay [2], the target named is T2, Fatty-acid amide hydrolase 1 (Rattus norvegicus) (UniProt P97612).
T2 sequence (whole entry): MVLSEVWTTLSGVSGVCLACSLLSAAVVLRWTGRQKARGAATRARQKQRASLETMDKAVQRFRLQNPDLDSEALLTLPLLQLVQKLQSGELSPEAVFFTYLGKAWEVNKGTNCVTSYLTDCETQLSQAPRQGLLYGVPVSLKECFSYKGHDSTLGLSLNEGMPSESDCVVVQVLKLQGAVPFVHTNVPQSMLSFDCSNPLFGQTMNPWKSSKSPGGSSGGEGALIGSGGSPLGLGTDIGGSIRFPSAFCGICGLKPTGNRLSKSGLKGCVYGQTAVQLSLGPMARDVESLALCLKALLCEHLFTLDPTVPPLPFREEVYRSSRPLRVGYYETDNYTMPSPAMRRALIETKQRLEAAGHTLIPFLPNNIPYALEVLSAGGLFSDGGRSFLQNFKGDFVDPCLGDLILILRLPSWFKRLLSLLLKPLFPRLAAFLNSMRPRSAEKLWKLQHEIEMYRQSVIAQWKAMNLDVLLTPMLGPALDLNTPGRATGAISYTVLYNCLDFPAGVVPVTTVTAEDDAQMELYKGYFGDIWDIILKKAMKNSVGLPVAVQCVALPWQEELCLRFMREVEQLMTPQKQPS
Description: Inhibition of FAAH in rat RBL2H3 cells assessed as blockade of [3H]-anandamide uptake at 0.0001 to 1 uM incubated for 15 mins prior to [3H]-anandamide addition measured after 10 mins by scintillation spectroscopic analysis in presence of JJKK-048. It is filed as cell-based. The conditions noted are these: RBL-2H3.

In assay [3] the target is T2, Fatty-acid amide hydrolase 1 (Rattus norvegicus). The experiment in a line: Inhibition of FAAH in rat RBL2H3 cells assessed as blockade of [3H]-anandamide uptake at 1 uM incubated for 15 mins prior to [3H]-anandamide addition measured after 10 mins by scintillation spectroscopic analysis. The assay is classed as cell-based. The following applies: RBL-2H3.
The target of assay [4] is T3, Fatty-acid amide hydrolase 1 (Rattus norvegicus, UniProt P97612).
T3 sequence (P97612 whole entry): T2 sequence (whole entry)
Description: Inhibition of FAAH in rat RBL2H3 cells assessed as blockade of [3H]-anandamide uptake incubated for 15 mins prior to [3H]-anandamide addition measured after 10 mins by scintillation spectroscopic analysis. It is filed as cell-based, RBL-2H3.

For assay [5], the target named is T4, Lysophosphatidylserine lipase ABHD12 (Homo sapiens) (UniProt Q8N2K0).
T4 sequence (whole entry): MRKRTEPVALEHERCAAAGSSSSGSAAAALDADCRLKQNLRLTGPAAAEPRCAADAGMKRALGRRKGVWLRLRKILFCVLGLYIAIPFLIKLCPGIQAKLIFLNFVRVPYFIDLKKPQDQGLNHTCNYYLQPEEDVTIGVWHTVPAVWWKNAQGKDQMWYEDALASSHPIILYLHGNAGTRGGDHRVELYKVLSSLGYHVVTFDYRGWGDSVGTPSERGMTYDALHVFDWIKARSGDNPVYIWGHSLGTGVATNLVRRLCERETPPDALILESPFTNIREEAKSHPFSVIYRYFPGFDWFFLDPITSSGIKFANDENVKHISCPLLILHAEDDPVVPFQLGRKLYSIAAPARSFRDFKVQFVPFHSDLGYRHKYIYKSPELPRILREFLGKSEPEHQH
The experiment in a line: Inhibition of human ABHD12 overexpressed in HEK293 cells assessed as 2-AG hydrolysis at 1 uM by fluorescent glycerol assay. It is filed as cell-based.

For assay [6], the target named is T5, Monoacylglycerol lipase ABHD6 (Homo sapiens) (UniProt Q9BV23).
T5 sequence (whole entry): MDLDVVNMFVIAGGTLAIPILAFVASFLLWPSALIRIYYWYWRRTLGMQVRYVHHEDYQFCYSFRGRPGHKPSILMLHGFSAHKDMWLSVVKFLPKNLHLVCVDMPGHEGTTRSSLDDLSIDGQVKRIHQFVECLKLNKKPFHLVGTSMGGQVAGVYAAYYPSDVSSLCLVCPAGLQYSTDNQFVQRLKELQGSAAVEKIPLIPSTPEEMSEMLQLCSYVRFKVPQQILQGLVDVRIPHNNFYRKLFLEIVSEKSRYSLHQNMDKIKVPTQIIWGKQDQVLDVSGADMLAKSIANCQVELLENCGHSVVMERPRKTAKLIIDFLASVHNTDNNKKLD
The experiment in a line: Inhibition of human ABHD6 overexpressed in HEK293 cells assessed as 2-AG hydrolysis at 1 uM by fluorescent glycerol assay. It is filed as cell-based.

The target in assay [7] is T6, Monoglyceride lipase (Homo sapiens, UniProt Q99685).
T6 sequence (Q99685 whole entry): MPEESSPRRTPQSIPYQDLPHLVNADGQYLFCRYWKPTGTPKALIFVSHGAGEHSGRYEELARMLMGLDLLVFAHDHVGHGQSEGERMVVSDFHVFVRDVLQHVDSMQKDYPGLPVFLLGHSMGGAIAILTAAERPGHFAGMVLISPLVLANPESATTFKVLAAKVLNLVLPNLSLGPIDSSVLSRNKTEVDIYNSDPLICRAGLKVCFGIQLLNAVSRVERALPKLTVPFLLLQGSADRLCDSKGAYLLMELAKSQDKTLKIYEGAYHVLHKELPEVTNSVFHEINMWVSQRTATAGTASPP
Description: Inhibition of human recombinant MAGL overexpressed in HEK cells using 2-AG as substrate preincubated for 10 mins before substrate addition measured after 10 mins by HPLC analysis. The assay is classed as cell-based, HEK293. The following applies: read-out: IC50.

For assay [8], the target named is T7, Fatty-acid amide hydrolase 1 (Homo sapiens) (UniProt O00519).
T7 sequence (whole entry): T1 sequence (O00519 whole entry)
The experiment in a line: Reversible inhibition of human recombinant FAAH overexpressed in African green monkey COS7 cells using […] as substrate assessed as recovery of enzyme activity at 20 x IC50 preincubated for 60 mins followed by 500 fold dilution measured after 10 mins by HPLC analysis. The assay is classed as cell-based. The following applies: COS-7.

For assay [9], the target named is T7, Fatty-acid amide hydrolase 1 (Homo sapiens). The experiment in a line: Inhibition of human recombinant FAAH overexpressed in African green monkey COS7 cells using [3H]-anandamide as substrate at 30 uM preincubated for 10 to 60 mins by liquid scintillation counting analysis. The conditions noted are these: COS-7.
For assay [10] the target is unchanged. The experiment in a line: Inhibition of human recombinant FAAH overexpressed in African green monkey COS7 cells using [3H]-anandamide as substrate at 300 uM preincubated for 10 to 60 mins by liquid scintillation counting analysis. It is filed as cell-based. The following applies: COS-7.
In assay [11] the target is T8, Fatty-acid amide hydrolase 1 (Mus musculus) (UniProt O08914).
T8 sequence (whole entry): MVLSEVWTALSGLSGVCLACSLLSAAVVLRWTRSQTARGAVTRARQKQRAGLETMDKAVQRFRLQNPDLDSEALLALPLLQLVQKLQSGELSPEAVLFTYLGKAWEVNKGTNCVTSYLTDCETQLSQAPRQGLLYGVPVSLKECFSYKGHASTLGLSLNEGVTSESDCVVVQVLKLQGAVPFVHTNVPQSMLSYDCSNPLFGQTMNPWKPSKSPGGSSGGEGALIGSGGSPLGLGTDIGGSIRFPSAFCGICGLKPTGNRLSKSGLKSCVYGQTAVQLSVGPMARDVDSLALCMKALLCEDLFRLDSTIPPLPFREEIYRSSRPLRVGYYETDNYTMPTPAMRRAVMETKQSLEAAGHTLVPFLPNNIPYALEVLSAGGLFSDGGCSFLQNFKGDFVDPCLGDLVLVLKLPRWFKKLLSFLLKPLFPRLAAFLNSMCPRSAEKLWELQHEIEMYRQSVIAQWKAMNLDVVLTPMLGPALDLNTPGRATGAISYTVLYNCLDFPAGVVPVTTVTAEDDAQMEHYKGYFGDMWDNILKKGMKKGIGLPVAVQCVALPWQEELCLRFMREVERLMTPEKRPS
The following applies: Brain, Membrane, 10 uM.
Description: Inhibition of TAMRA-FP-labeled FAAH in mouse brain membrane at 10 uM after 1 hr by fluorescent gel scanning assay

pIC50: −log10 of the molar value. Activity calls are given as the source filed them. The calls are words filed in the database; no cut-off is given here.

Take `COc1nn(C(C)c2ccc(N(c3ccccc3)c3ccccc3)cc2)c(=O)o1` (racemic): the figures for the pIC50 in assay [1], in [4] and in [7] were 6.92, 7.96 and 6.20, respectively. For the same compound, the IC50 in assay [1] is 115 nM. For the same compound, the inhibition result in assay [2] and in assay [3] was “Active” each time. The inhibition entry in [5] and in assay [6] was “inactive” in each case.
For the compound `CCCCCCCCCCCC(=O)c1nc2ncccc2o1`, in assay [1], the pIC50 was 7.77 and the IC50 was 16.6 nM. Moreover, the inhibition result in assay [8] is “Active”. Also, in [9], the inhibition result is “inactive”.
For the compound `O=C(Nc1ccccc1)N1CCC(Cc2ccc3ccccc3n2)CC1`, in assay [1], the pIC50 is 6.49 and the IC50 was 324 nM. The inhibition result in assay [8] was “inactive”. The inhibition result in assay [10] was “Active”.
Turning to `O=C(Oc1ccc([N+](=O)[O-])cc1)N1CCN(Cc2cccc(Oc3ccccc3)c2)CC1`, the inhibition entry in assay [11] is “Active”.
